The values below come from PubChem BioAssay (NCI).

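Growth conditions: 96-well plates. Treatment: test compound, 48 hours, 5 concentrations. Analysis: linear interpolation between bracketing concentrations; unreached endpoints set to highest concentration. TGI: total growth inhibition.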

Some test systems named below: 786-0 renal; CCRF-CEM leukemia; HS 578T breast; HT29 colon; KM12 colon; MCF7 breast; NCI-H23 lung; NCI-H522 lung; OVCAR-4 ovarian; SF-268 CNS; SK-MEL-2 melanoma; SK-MEL-28 melanoma; U251 CNS; HL-60(TB) leukemia; LOX IMVI melanoma.
What all share (experiment): NCI-60 cell line screen, 48 h

With `[N-]=[N+]=Nc1cc(=O)n(-c2ccccc2)c(=O)n1-c1ccccc1`, the TGI with 786-0 renal, in the assay with CCRF-CEM leukemia, in the assay on HS 578T breast, in the assay on HT29 colon, in the assay with KM12 colon and with MCF7 breast was greater than 100 µM throughout. Besides, the TGI in the assay with NCI-H23 lung, with NCI-H522 lung, in the assay on OVCAR-4 ovarian, with SF-268 CNS, in the assay on SK-MEL-2 melanoma and with SK-MEL-28 melanoma was greater than 100 µM each time. In addition, the TGI with U251 CNS is greater than 100 µM.

In the case of `NC(=O)CC1(O)C=CC(=O)C=C1`, the TGI in the assay with 786-0 renal, with CCRF-CEM leukemia, in the assay with HL-60(TB) leukemia, with HT29 colon, in the assay on KM12 colon and in the assay with LOX IMVI melanoma was greater than 100 µM throughout. For the same compound, the TGI in the assay on MCF7 breast, in the assay on NCI-H23 lung, with NCI-H522 lung, in the assay with OVCAR-4 ovarian, with SK-MEL-2 melanoma and in the assay with SK-MEL-28 melanoma was greater than 100 µM each time. The compound further had a TGI in the assay on U251 CNS greater than 100 µM.

On to `CCOC(=O)C(NC(=O)NCc1ccc(F)cc1)C(F)(F)F` (stereo not drawn), for which the TGI with 786-0 renal, with CCRF-CEM leukemia, in the assay on HL-60(TB) leukemia, with HS 578T breast, in the assay on HT29 colon and with LOX IMVI melanoma was greater than 100 µM in each case. The TGI in the assay on NCI-H23 lung, in the assay with SF-268 CNS, in the assay on SK-MEL-2 melanoma, with SK-MEL-28 melanoma and in the assay with U251 CNS was greater than 100 µM throughout.

Turning to `Cc1ccc(-c2cnc(NC3OC(COC(=O)c4ccccc4)C(OC(=O)c4ccccc4)C(OC(=O)c4ccccc4)C3OC(=O)c3ccccc3)s2)cc1` (stereo not drawn), the TGI with 786-0 renal, in the assay on HS 578T breast, in the assay with HT29 colon, in the assay with LOX IMVI melanoma, with MCF7 breast and in the assay with NCI-H23 lung was greater than 100 µM in each case. The TGI in the assay on NCI-H522 lung, in the assay with OVCAR-4 ovarian, with SF-268 CNS, in the assay on SK-MEL-2 melanoma, in the assay with SK-MEL-28 melanoma and in the assay on U251 CNS was greater than 100 µM throughout.

Turning to `Clc1cccc(Cl)c1C1SCc2nc3cc4ccccc4cc3n21` (stereo not drawn), the TGI in the assay on 786-0 renal, with CCRF-CEM leukemia, in the assay with HS 578T breast, in the assay with HT29 colon, with KM12 colon and in the assay on MCF7 breast was greater than 100 µM in each case. The TGI with NCI-H23 lung, in the assay with OVCAR-4 ovarian, with SF-268 CNS, with SK-MEL-2 melanoma, in the assay with SK-MEL-28 melanoma and with U251 CNS was greater than 100 µM in each case.

For the compound `COC(=O)C1=C(C(=O)OC)C(C(=O)c2ccccc2)N2N=C(c3ccc(Cl)cc3)C=CC12` (stereo not drawn), the TGI in the assay on 786-0 renal, in the assay on CCRF-CEM leukemia, in the assay with HL-60(TB) leukemia, with HT29 colon, in the assay with KM12 colon and in the assay with LOX IMVI melanoma was greater than 100 µM each time. The TGI with MCF7 breast is greater than 100 µM; with NCI-H23 lung it was greater than 100 µM; with NCI-H522 lung it was 43.5 µM; in the assay with OVCAR-4 ovarian it was greater than 100 µM; with SF-268 CNS it was greater than 100 µM; in the assay with SK-MEL-2 melanoma, greater than 100 µM. In addition, the TGI in the assay on SK-MEL-28 melanoma and with U251 CNS was greater than 100 µM each time.

Turning to `Cc1nn(-c2ccccc2)c2nc3c(c(C)nn3-c3ccccc3)c(-c3ccccc3Br)c12`, the TGI in the assay on 786-0 renal, in the assay with CCRF-CEM leukemia, with HT29 colon, in the assay on KM12 colon, in the assay with LOX IMVI melanoma and with MCF7 breast was greater than 100 µM in each case. In addition, the TGI in the assay on NCI-H23 lung, in the assay on NCI-H522 lung, in the assay with OVCAR-4 ovarian, with SF-268 CNS, with SK-MEL-28 melanoma and in the assay on U251 CNS was greater than 100 µM throughout.

Turning to `Nc1ccccc1C(=O)NNC(=O)c1ccccc1N`, the TGI in the assay on 786-0 renal, with CCRF-CEM leukemia, with HL-60(TB) leukemia, with HT29 colon, with KM12 colon and in the assay on LOX IMVI melanoma was greater than 100 µM throughout. The TGI in the assay on MCF7 breast, with NCI-H23 lung, with NCI-H522 lung, in the assay with OVCAR-4 ovarian, with SK-MEL-2 melanoma and in the assay with SK-MEL-28 melanoma was greater than 100 µM in each case. The TGI in the assay on U251 CNS is greater than 100 µM.

In the case of `CC(C)[Si](OCC/C=C/C1CCC(=O)C1C(O)C1CCCCC1)(C(C)C)C(C)C` (stereo not drawn), the TGI in the assay with 786-0 renal stood at 29.3 µM; in the assay with CCRF-CEM leukemia, 44.6 µM; in the assay with HS 578T breast, 36.5 µM; with HT29 colon, 26.2 µM; with KM12 colon, 30 µM; in the assay on LOX IMVI melanoma it was 32.7 µM. Besides, the TGI worked out at 34.2 µM in the assay with MCF7 breast; 29 µM with NCI-H23 lung; 25.3 µM in the assay on NCI-H522 lung; 38.6 µM in the assay on OVCAR-4 ovarian; 24.7 µM in the assay with SF-268 CNS; 26.9 µM in the assay on SK-MEL-2 melanoma. Moreover, the TGI with SK-MEL-28 melanoma is 29 µM; in the assay on U251 CNS, 30.9 µM.

With `Cc1cc2c(cc1Cl)SC(NNC(=O)c1ccncc1)=NS2(=O)=O`, the TGI in the assay with 786-0 renal, in the assay with CCRF-CEM leukemia, in the assay on HL-60(TB) leukemia, in the assay with HS 578T breast, in the assay with HT29 colon and with KM12 colon was greater than 10 µM in each case. Also, the TGI in the assay on LOX IMVI melanoma, with NCI-H23 lung, with NCI-H522 lung, with OVCAR-4 ovarian, with SF-268 CNS and in the assay with SK-MEL-2 melanoma was greater than 10 µM throughout. In addition, the TGI in the assay with SK-MEL-28 melanoma and in the assay on U251 CNS was greater than 10 µM each time.
